Consider two molecules from patent US9090645B2, “Therapeutic compositions and methods of treatment with capsianoside-type compounds” (BMB Patent Holding Corporation, priority 2006, dated 2015).

Values joined by “and” are separate entries in the source; they are usually repeats but may differ in a detail not shown here. Equal entries are not always repeated.

The test system of assay [1] is carrageenan-induced inflammation in air pouch. Briefly: Inflammation Bioassay: mouse air pouch assay (carrageenan), white blood cells in exudates. It is filed as in vivo, mice. The method, then: A mouse air pouch assay was used to determine the therapeutic effectiveness of various extracts/compounds as anti-inflammatory agents in the present invention.
To induce air pouches, 10-15 week old mice were injected subcutaneously on the back with 3 ml of air.
On day 2, the pouches were reinflated with 1.5 m. of air.
On day 6, inflammation was induced by injecting 1 ml of a suspension of carrageenan (2% weight/volume in calcium-free and magnesium-free phosphate buffered saline (PBS) solution) into the air pouch.
100 μL of solution including test compounds were injected with the carrageenan (additional 100 μL of PBS were injected into the controls).
After 4 hours, the mice were sacrificed by including CO2 narcosis, the pouches were flushed with 2 ml of PBS, and exudates were harvested.
Exudates were diluted 1:1 with 0.015% methylene blue in PBS.
White blood cells were counted in a standard hemocytometer chamber (American Optical, Buffalo, N.Y.).

The subject of assay [2] is capsaicin-treated hindpaw. The assay is described as follows: Analgesic Bioassay: rat hindpaw withdrawal latency assay. It is filed as in vivo, Sprague-Dawley rats. Particulars: for Avg. Cmpd. @ 5 min (hindpaw withdrawal latency): 5 min after compound on capsaicin-treated hindpaw; for Avg. Cmpd. @ 5 min (hindpaw withdrawal latency) / Avg. Cmpd. @ 20 min (hindpaw withdrawal latency) / Avg. Cmpd @ 30 min (hindpaw withdrawal latency): 498: 0.27 mg, 660: 0.33 mg; for Avg. Cmpd. @ 5 min (hindpaw withdrawal latency) / Avg. Cmpd. @ 20 min (hindpaw withdrawal latency) / Avg. Cmpd @ 30 min (hindpaw withdrawal latency) / Avg. Cap. @ 20 min (hindpaw withdrawal latency) / Avg. Cap. @ 25 min (hindpaw withdrawal latency) / Avg. Cap. @ 30 min (hindpaw withdrawal latency) / Avg. All Capsaicin (hindpaw withdrawal latency) / Avg. All Baselines (hindpaw withdrawal latency): n=5; for Avg. Cmpd. @ 20 min (hindpaw withdrawal latency): 20 min after compound on capsaicin-treated hindpaw; for Avg. Cmpd @ 30 min (hindpaw withdrawal latency): 30 min after compound on capsaicin-treated hindpaw; for Avg. Cap. @ 20 min (hindpaw withdrawal latency) / Avg. Cap. @ 25 min (hindpaw withdrawal latency) / Avg. Cap. @ 30 min (hindpaw withdrawal latency) / Avg. All Capsaicin (hindpaw withdrawal latency) / Avg. All Baselines (hindpaw withdrawal latency): Table 7; for Avg. Cap. @ 20 min (hindpaw withdrawal latency): 20 min post-capsaicin; for Avg. Cap. @ 20 min (hindpaw withdrawal latency) / Avg. Cap. @ 25 min (hindpaw withdrawal latency) / Avg. Cap. @ 30 min (hindpaw withdrawal latency) / Avg. All Capsaicin (hindpaw withdrawal latency): before compound; for Avg. Cap. @ 25 min (hindpaw withdrawal latency): 25 min post-capsaicin; for Avg. Cap. @ 30 min (hindpaw withdrawal latency): 30 min post-capsaicin; for Avg. All Capsaicin (hindpaw withdrawal latency): all post-capsaicin times; for Avg. All Baselines (hindpaw withdrawal latency): before any treatment. The method, then: A rat hindpaw assay was used to determine the therapeutic effectiveness of various extracts/compounds as analgesics in the present invention.
Sprague-Dawley rats (225-250 g, male) were anesthetized with urethane and placed on their sides on a disposable Chux pad. Both hindpaws for each rat were blackened with India ink which was allowed to dry for 10 minutes. An ELH projector lamp calibrated to a standard mW/cm^2 was used as a pain stimulus and was condensed into an area of 5×15 mm on each hindpaw and placed perpendicular to, and 72 mm from, each hindpaw.
Multiple baseline hindpaw withdrawal latency times were recorded (in seconds) for each medial and each lateral surface of each hindpaw. Subsequently, 100 μl of 1 μmolar capsaicin was applied with a pipette to cover one hindpaw of each animal and allowed to dry for 10 minutes, rendering the capsaicin-treated hindpaw hypersensitive to pain stimulus relative to the non-capsaicin treated hindpaw (and thereby decreasing the withdrawal latency period for the capsaicin-treated hindpaw relative to the non-treated hindpaw).
Both hindpaws were then re-blackened with India ink which was allowed to dry for 10 minutes, and hindpaw withdrawal latencies were recorded for both the capsaicin-treated and untreated hindpaws on both the medial and lateral aspects of both hindpaws at 20, 25 and 30 minutes. […] By contrast, only minor drops in the withdrawal latency periods of the untreated hindpaws was seen, and the effect that was observed is believed to be due to the central mechanism effect of capsaicin-treatment on the other hindpaw.
To determine the analgesic properties of each fraction, 100 μl of each fraction were applied to the capsaicin-treated hindpaw by pipette and permitted to dry (the untreated hindpaw was not treated with the fraction). Hindpaw withdrawal latencies were then recorded at 5, 20 and 30 minutes for both the capsaicin/fraction-treated hindpaw and the untreated hindpaw. An increase in the hindpaw withdrawal time was indicative of an analgesic effect by the applied fraction.

Setting [3] is: individual mice, 100 μL test solution injected with carrageenan, 4 hours.

With `C=C[C@](C)(CC/C=C(\C)CC/C=C(\C)CC(O)/C=C(\C)C(=O)O)O[C@@H]1OC(CO)[C@@H](O)C(O)C1O[C@@H]1OC(CO)[C@@H](O)C(O)C1O` (stereo partly drawn) [Compound 660, capsianoside I], the “Average Cells (10^6/ml) (white blood cells in exudate)” value in assay [1] (average of five mice, control mice (PBS) 2.67) is 1.54 10^6/ml. For the same molecule, in assay [1] (setting [3]), the “Cells (10^6/ml) (white blood cells in exudate)” value was 1.30 10^6/ml and 2.49 10^6/ml (2×) and 0.32 10^6/ml and 1.09 10^6/ml; the “Cells/ml (white blood cells in exudate)” value is 1.30E+06 Cells/ml and 2.49E+06 Cells/ml (2×) and 3.23E+05 Cells/ml and 1.09E+06 Cells/ml. Besides, the “anti-inflammatory effects compared with methotrexate and dexamethasone” value in assay [1] (mouse air pouch) is “comparable to 0.5-1.0 mg/kg/week of chronic methotrexate, or 1.5 mg/kg acute dose of dexamethasone”. In assay [2], the “Avg. Cmpd. @ 5 min (hindpaw withdrawal latency)” value was 10.5 s, the “Avg. Cmpd. @ 20 min (hindpaw withdrawal latency)” value was 9.6 s, the “Avg. Cmpd @ 30 min (hindpaw withdrawal latency)” value was determined as 6.5 s and the “Avg. Cap. @ 20 min (hindpaw withdrawal latency)” value came out at 9.5 s. In assay [2], the “Avg. Cap. @ 25 min (hindpaw withdrawal latency)” value was found to be 6.4 s, the “Avg. Cap. @ 30 min (hindpaw withdrawal latency)” value came to 5.9 s, the “Avg. All Capsaicin (hindpaw withdrawal latency)” value came out at 7.3 s and the “Avg. All Baselines (hindpaw withdrawal latency)” value amounted to 9.5 s.

For the molecule `C=C[C@](C)(CC/C=C(\C)CC/C=C(\C)CC(O)/C=C(\C)C(=O)O)O[C@@H]1OC(CO)[C@@H](O)C(O)C1O` (relative stereo) [Compound 498, 14-(beta-D-glucopyranosyloxy)-4-hydroxy-2,6,10,14-tetramethyl-2,6,10,15-hexadecatetraenoic acid [4R-(2E,4R*,6E,10E,14S*)]], in assay [2], the “Avg. Cmpd. @ 5 min (hindpaw withdrawal latency)” value was 13.6 s, the “Avg. Cmpd. @ 20 min (hindpaw withdrawal latency)” value amounted to 9.4 s, the “Avg. Cmpd @ 30 min (hindpaw withdrawal latency)” value turned out to be 8.1 s and the “Avg. Cap. @ 20 min (hindpaw withdrawal latency)” value amounted to 7.4 s. Also, in assay [2], the “Avg. Cap. @ 25 min (hindpaw withdrawal latency)” value worked out at 7.956 s, the “Avg. Cap. @ 30 min (hindpaw withdrawal latency)” value was 5.4 s, the “Avg. All Capsaicin (hindpaw withdrawal latency)” value was 6.9 s and the “Avg. All Baselines (hindpaw withdrawal latency)” value amounted to 10.77 s. For the same molecule, the “analgesic activity (in words)” value in assay [2] (Analgesic Bioassay (Example 1)) is given as “strong analgesic effect”.
